Target: Metabotropic glutamate receptor 2 (Homo sapiens) (UniProt Q14416)
Test: Negative allosteric modulation of human mGluR2 receptor expressed in CHO cell membranes assessed as inhibition of glutamate responses after 30 mins by [35S]GTPgammaS binding assay
Type: functional

Sequence of Metabotropic glutamate receptor 2 (Homo sapiens) (Q14416 19-872 limits assumed): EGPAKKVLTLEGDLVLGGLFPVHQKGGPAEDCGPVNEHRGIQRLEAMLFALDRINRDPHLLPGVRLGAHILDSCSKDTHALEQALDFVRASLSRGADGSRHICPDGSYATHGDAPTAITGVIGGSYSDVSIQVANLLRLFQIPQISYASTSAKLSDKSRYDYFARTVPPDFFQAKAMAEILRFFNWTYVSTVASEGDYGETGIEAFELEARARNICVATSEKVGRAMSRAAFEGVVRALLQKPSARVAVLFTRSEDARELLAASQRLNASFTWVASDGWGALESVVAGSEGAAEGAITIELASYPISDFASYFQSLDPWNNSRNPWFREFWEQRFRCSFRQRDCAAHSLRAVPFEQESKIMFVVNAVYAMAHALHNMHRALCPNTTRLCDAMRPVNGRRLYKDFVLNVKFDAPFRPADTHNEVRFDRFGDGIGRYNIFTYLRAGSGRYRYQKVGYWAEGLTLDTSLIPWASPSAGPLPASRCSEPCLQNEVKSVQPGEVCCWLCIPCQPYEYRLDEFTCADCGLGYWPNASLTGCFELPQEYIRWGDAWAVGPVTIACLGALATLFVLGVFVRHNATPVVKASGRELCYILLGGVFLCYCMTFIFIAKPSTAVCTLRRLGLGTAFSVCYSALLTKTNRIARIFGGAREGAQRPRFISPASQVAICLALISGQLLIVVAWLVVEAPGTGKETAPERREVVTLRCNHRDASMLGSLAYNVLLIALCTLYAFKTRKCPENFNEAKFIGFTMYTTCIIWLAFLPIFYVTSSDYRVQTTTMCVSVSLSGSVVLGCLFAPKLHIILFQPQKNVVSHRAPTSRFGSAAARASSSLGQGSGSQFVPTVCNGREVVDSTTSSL

Emax	SMILES
106%	CCC1CN(c2ccc(C(F)(F)F)cc2)C(=O)c2c(-c3ccnc(C)c3)cnn21 (centres undefined)
106%	Cc1cc(-c2cnn3c2C(=O)N(c2ccc(C(F)(F)F)cc2)C[C@@H]3C)ccn1
49%	Cc1cc(-c2cnn3c2C(=O)N(c2ccc(C(C)O)cc2)C[C@@H]3C)ccn1 (some centres undefined)
109%	C[C@H]1CN(c2ccc(C(F)(F)F)c(Cl)c2)C(=O)c2c(-c3ccnc(C#N)c3)cnn21

Source: ChEMBL document CHEMBL3421584, “Allosteric modulators: an emerging concept in drug discovery” (ACS Med Chem Lett, 2015)
